Experiments:
S. pneumoniae D39V [1] = assay: fitness (endpoint OD595 vs no drug) (fraction); higher = more growth
Summary of the method: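 Volumes were 30 µl per well, or 55 µl for S. pneumoniae, in 384-well plates inoculated at OD595 0.01. Media were TSB, LB Lennox or CY at 37 °C, and OD595 was read every 30 min for 14 h with first-reading background subtraction. Fitness is the ratio of optical density at stationary-phase entry to the robust mean of no-drug controls. That ratio is capped at 1.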

B. subtilis 168 = assay: Bliss interaction score (quartile over a dose matrix) (fitness difference); higher = more antagonism (negative = synergy)
Summary of the method: (§1)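 The Bliss score is observed fitness minus expected fitness, where the expected value is the product of single-drug fitness values inferred from combination data. Fitness is OD595 at entry into stationary phase normalised to the plate's robust no-drug mean and capped at 1. Scores are reported as quartiles spanning technical, biological and donor/recipient replicates.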

S. aureus DSM 20231 = assay: as above
Summary of the method: as §1

S. aureus Newman = assay: as above
Summary of the method: as §1

S. pneumoniae D39V [2] = assay: as above
Summary of the method: as §1
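Wherever Bliss interaction score (quartile over a dose matrix) is given: first quartile when negative (synergy) and third quartile when positive (antagonism).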

CNC(C)C1CCC(N)C(OC2C(N)CC(N)C(OC3OCC(C)(O)C(NC)C3O)C2O)O1 (stereo not given) [Gentamicin] + C[C@@H](O)[C@H]1C(=O)N2C(C(=O)O)=C(SCCNC=N)C[C@H]12 [Imipenem]
fitness, S. pneumoniae D39V [1], main component drawn
Conditions | partner 0.005 µg/mL | partner 0.0065 µg/mL | partner 0.01 µg/mL | partner 0.013 µg/mL | partner 0.02 µg/mL | partner 0.026 µg/mL
first compound 2 µg/mL | 0.924 | 0.989 | 0.915 | ≥ 1 | 0.914 | 0.661
first compound 4 µg/mL | 0.928 | 0.971 | 0.922 | 0.996 | 0.92 | 0.964
first compound 8 µg/mL | 0.895 | 0.917 | 0.864 | 0.931 | 0.874 | 0.892

main component drawn
Conditions | Bliss interaction score
B. subtilis 168 | 0.199
S. aureus DSM 20231 | 0.0591
S. aureus Newman | -0.0478
S. pneumoniae D39V [2] | 0.0671

CNC(C)C1CCC(N)C(OC2C(N)CC(N)C(OC3OCC(C)(O)C(NC)C3O)C2O)O1 (stereo not given) [Gentamicin] + Clc1ccc(COC(Cn2ccnc2)c2ccc(Cl)cc2Cl)c(Cl)c1 [Miconazole]
fitness, S. pneumoniae D39V [1], main component drawn
Conditions | partner 1.073 µg/mL | partner 1.25 µg/mL | partner 2.145 µg/mL | partner 2.5 µg/mL | partner 4.29 µg/mL | partner 5 µg/mL
first compound 2 µg/mL | ≥ 1 | 0.915 | ≥ 1 | 0.901 | 0.912 | 0.905
first compound 4 µg/mL | ≥ 1 | 0.884 | 0.998 | 0.893 | 0.987 | 0.911
first compound 8 µg/mL | 0.996 | 0.838 | ≥ 1 | 0.868 | 0.913 | 0.875

main component drawn
Conditions | Bliss interaction score
B. subtilis 168 | -0.151
S. aureus DSM 20231 | 0.102
S. aureus Newman | 0.0417
S. pneumoniae D39V [2] | 0.0753

CNC(C)C1CCC(N)C(OC2C(N)CC(N)C(OC3OCC(C)(O)C(NC)C3O)C2O)O1 (stereo not given) [Gentamicin] + O=C1CN(/N=C/c2ccc([N+](=O)[O-])o2)C(=O)N1 [Nitrofurantoin]
fitness, S. pneumoniae D39V [1], main component drawn
Conditions | partner 1.285 µg/mL | partner 2 µg/mL | partner 2.57 µg/mL | partner 4 µg/mL | partner 8 µg/mL
first compound 2 µg/mL | 0.948 | 0.861 | 0.951 | 0.791 | 0.45
first compound 4 µg/mL | 0.943 | 0.897 | 0.945 | 0.747 | 0.409
first compound 8 µg/mL | 0.953 | 0.831 | 0.957 | 0.659 | 0.368

S. pneumoniae D39V [1], partner 5.14 µg/mL, one replicate, main component drawn
Conditions | fitness
first compound 2 µg/mL | 0.945
first compound 4 µg/mL | 0.947
first compound 8 µg/mL | 0.918

main component drawn
Conditions | Bliss interaction score
B. subtilis 168 | -0.138
S. aureus DSM 20231 | -0.0432
S. aureus Newman | 0.0572
S. pneumoniae D39V [2] | 0.0782

Clc1ccc(COC(Cn2ccnc2)c2ccc(Cl)cc2Cl)c(Cl)c1 (stereo not given) [Miconazole] + C/C(=C\C(=O)OCCCCCCCCC(=O)O)C[C@@H]1OC[C@H](C[C@@H]2O[C@H]2[C@@H](C)[C@H](C)O)[C@@H](O)[C@H]1O [Pseudomonic acid]
fitness, S. pneumoniae D39V [1]
Conditions | first compound 1.073 µg/mL | first compound 1.25 µg/mL | first compound 2.145 µg/mL | first compound 2.5 µg/mL | first compound 4.29 µg/mL | first compound 5 µg/mL
partner 0.03 µg/mL | 0.988 | 0.915 | ≥ 1 | 0.894 | ≥ 1 | 0.88
partner 0.06 µg/mL | 0.914 | 0.746 | 0.94 | 0.754 | 0.981 | 0.681
partner 0.12 µg/mL | 0.734 | 0.563 | 0.759 | 0.551 | – | 0.549

Conditions | Bliss interaction score
B. subtilis 168 | -0.0459
S. aureus DSM 20231 | 0.0125
S. aureus Newman | -0.0143
S. pneumoniae D39V [2] | 0.126

Clc1ccc(COC(Cn2ccnc2)c2ccc(Cl)cc2Cl)c(Cl)c1 (stereo not given) [Miconazole] + CC1=C\[C@@H](O)CC(=O)Cc2nc(co2)C(=O)N2CCC=C2C(=O)O[C@H](C(C)C)[C@H](C)/C=C/C(=O)NC\C=C\1 [Virginiamycin M1]
fitness, S. pneumoniae D39V [1]
Conditions | first compound 1.073 µg/mL | first compound 1.25 µg/mL | first compound 2.145 µg/mL | first compound 2.5 µg/mL | first compound 4.29 µg/mL | first compound 5 µg/mL
partner 0.5 µg/mL | ≥ 1 | – | ≥ 1 | – | 0.882 | –
partner 1 µg/mL | ≥ 1 | – | ≥ 1 | – | ≥ 1 | –
partner 2 µg/mL | 0.983 | 0.902 | ≥ 1 | 0.903 | 0.988 | 0.879

fitness, S. pneumoniae D39V [1], one replicate
Conditions | partner 0.15 µg/mL | partner 0.3 µg/mL | partner 0.5 µg/mL | partner 1 µg/mL
first compound 1.25 µg/mL | 0.949 | 0.905 | ≥ 1 | ≥ 1
first compound 2.5 µg/mL | 0.95 | 0.902 | ≥ 1 | ≥ 1
first compound 5 µg/mL | 0.906 | 0.904 | 0.997 | 0.891

Conditions | Bliss interaction score
B. subtilis 168 | 0.103
S. aureus DSM 20231 | 0.0731
S. aureus Newman | 0.0829
S. pneumoniae D39V [2] | 0.0555

Clc1ccc(COC(Cn2ccnc2)c2ccc(Cl)cc2Cl)c(Cl)c1 (stereo not given) [Miconazole] + CCC(C)C1C(=O)NC(=C)C(=O)NC(C(=O)NC(CSCC(C(=O)N1)NC(=O)/C(=C/C)/NC(=O)C(C(C)CC)N)C(=O)NC2C(SCC(NC(=O)CNC(=O)C3CCCN3C2=O)C(=O)NC(CCCCN)C(=O)NC4C(SCC(NC(=O)CNC(=O)C(NC(=O)C(NC(=O)C(NC(=O)CNC4=O)C)CC(C)C)CCSC)C(=O)NC(CC(=O)N)C(=O)NC(CCSC)C(=O)NC(CCCCN)C(=O)NC5C(SCC6C(=O)NC(C(=O)NC(CSC(C(C(=O)N6)NC(=O)C(NC5=O)C)C)C(=O)NC(CO)C(=O)NC(C(C)CC)C(=O)NC(CC7=CN=CN7)C(=O)NC(C(C)C)C(=O)NC(=C)C(=O)NC(CCCCN)C(=O)O)CC8=CN=CN8)C)C)C)CC(C)C [Nisin]
fitness, S. pneumoniae D39V [1], main component drawn
Conditions | first compound 1.073 µg/mL | first compound 1.25 µg/mL | first compound 2.145 µg/mL | first compound 2.5 µg/mL | first compound 4.29 µg/mL | first compound 5 µg/mL
partner 0.4275 µg/mL | – | 0.979 | – | 0.998 | – | 0.987
partner 0.855 µg/mL | – | 0.973 | – | 0.965 | – | 0.977
partner 1.6 µg/mL | 0.264 | – | 0.16 | – | 0.172 | –
partner 1.71 µg/mL | – | 0.0702 | – | 0.146 | – | 0.119
partner 3.2 µg/mL | 0.0113 | – | 0.0171 | – | 0.151 | –
partner 6.4 µg/mL | 0.0029 | – | 0.0131 | – | 0.168 | –

main component drawn
Conditions | Bliss interaction score
B. subtilis 168 | 0.0476
S. aureus DSM 20231 | -0.0527
S. aureus Newman | -0.0601
S. pneumoniae D39V [2] | 0.166

Clc1ccc(COC(Cn2ccnc2)c2ccc(Cl)cc2Cl)c(Cl)c1 (stereo not given) [Miconazole] + CCN(CC)CCOC(=O)c1ccc(N)cc1 [Procaine]
fitness, S. pneumoniae D39V [1]
Conditions | first compound 1.073 µg/mL | first compound 2.145 µg/mL | first compound 4.29 µg/mL
partner 85.5 µg/mL | ≥ 1 | ≥ 1 | 0.936
partner 171 µg/mL | 0.993 | 0.999 | 0.899
partner 342 µg/mL | 0.997 | ≥ 1 | 0.871

fitness, S. pneumoniae D39V [1], one replicate
Conditions | first compound 1.25 µg/mL | first compound 2.5 µg/mL | first compound 5 µg/mL
partner 85.5 µg/mL | 0.983 | ≥ 1 | ≥ 1
partner 171 µg/mL | 0.971 | 0.976 | 0.992
partner 342 µg/mL | 0.968 | 0.992 | ≥ 1

Conditions | Bliss interaction score
B. subtilis 168 | 0.0691
S. aureus DSM 20231 | 0.0418
S. aureus Newman | -0.0389
S. pneumoniae D39V [2] | 0.0592

Clc1ccc(COC(Cn2ccnc2)c2ccc(Cl)cc2Cl)c(Cl)c1 (stereo not given) [Miconazole] + CN1C2=CC=CC=C2N=C3C1=CC=CC3=O [Pyocyanin]
fitness, S. pneumoniae D39V [1]
Conditions | first compound 1.073 µg/mL | first compound 2.145 µg/mL | first compound 4.29 µg/mL
partner 0.325 µg/mL | ≥ 1 | ≥ 1 | ≥ 1
partner 0.65 µg/mL | 0.975 | 1 | 0.908
partner 1.3 µg/mL | 0.787 | – | 0.729

fitness, S. pneumoniae D39V [1], one replicate
Conditions | first compound 1.25 µg/mL | first compound 2.5 µg/mL | first compound 5 µg/mL
partner 0.325 µg/mL | 0.917 | 0.916 | 0.93
partner 0.65 µg/mL | 0.963 | 0.905 | 0.907

Conditions | Bliss interaction score
B. subtilis 168 | -0.0752
S. aureus DSM 20231 | 0.0453
S. aureus Newman | 0.0548
S. pneumoniae D39V [2] | 0.0535

Clc1ccc(COC(Cn2ccnc2)c2ccc(Cl)cc2Cl)c(Cl)c1 (stereo not given) [Miconazole] + CN(C)c1cc(NC(=O)CNC(C)(C)C)c(O)c2c1C[C@H]1C[C@H]3[C@H](N(C)C)C(O)=C(C(N)=O)C(=O)[C@@]3(O)C(O)=C1C2=O [Tigecycline]
fitness, S. pneumoniae D39V [1]
Conditions | first compound 1.073 µg/mL | first compound 1.25 µg/mL | first compound 2.145 µg/mL | first compound 2.5 µg/mL | first compound 4.29 µg/mL | first compound 5 µg/mL
partner 0.65 µg/mL | 0.992 | 0.974 | 0.998 | 0.982 | ≥ 1 | ≥ 1
partner 1.3 µg/mL | ≥ 1 | 0.997 | 0.992 | 0.991 | ≥ 1 | ≥ 1
partner 2.6 µg/mL | 0.999 | 0.982 | ≥ 1 | 0.993 | 0.998 | 0.927

Conditions | Bliss interaction score
B. subtilis 168 | 0.0621
S. aureus DSM 20231 | 0.0455
S. aureus Newman | 0.0412
S. pneumoniae D39V [2] | 0.0957

Clc1ccc(COC(Cn2ccnc2)c2ccc(Cl)cc2Cl)c(Cl)c1 (stereo not given) [Miconazole] + CN(N=O)C(=O)N[C@@H](C=O)[C@@H](O)[C@H](O)[C@H](O)CO [Streptozotocin]
fitness, S. pneumoniae D39V [1]
Conditions | first compound 1.073 µg/mL | first compound 2.145 µg/mL | first compound 4.29 µg/mL
partner 1.2 µg/mL | 0.997 | 0.982 | 0.939
partner 2.4 µg/mL | 0.989 | 0.988 | 0.938
partner 4.8 µg/mL | ≥ 1 | 0.977 | 0.923

fitness, S. pneumoniae D39V [1], one replicate
Conditions | first compound 1.25 µg/mL | first compound 2.5 µg/mL | first compound 5 µg/mL
partner 1.2 µg/mL | 0.924 | 0.903 | 0.942
partner 2.4 µg/mL | 0.971 | 0.94 | ≥ 1
partner 4.8 µg/mL | 0.788 | 0.813 | 0.841

Conditions | Bliss interaction score
B. subtilis 168 | 0.143
S. aureus DSM 20231 | 0.039
S. aureus Newman | 0.0421
S. pneumoniae D39V [2] | 0.0621

Clc1ccc(COC(Cn2ccnc2)c2ccc(Cl)cc2Cl)c(Cl)c1 (stereo not given) [Miconazole] + CN[C@@H]1[C@H](O)[C@H](NC)[C@H]2O[C@@]3(O)C(=O)C[C@@H](C)O[C@H]3O[C@@H]2[C@H]1O [Spectinomycin]
fitness, S. pneumoniae D39V [1]
Conditions | first compound 1.073 µg/mL | first compound 2.145 µg/mL | first compound 4.29 µg/mL
partner 4 µg/mL | ≥ 1 | ≥ 1 | 0.88
partner 8 µg/mL | 0.966 | 0.995 | 0.961
partner 16 µg/mL | 0.942 | 0.963 | 0.893

fitness, S. pneumoniae D39V [1], one replicate
Conditions | first compound 1.25 µg/mL | first compound 2.5 µg/mL | first compound 5 µg/mL
partner 4 µg/mL | 0.963 | 0.95 | 0.985
partner 8 µg/mL | 0.891 | 0.879 | 0.906

Conditions | Bliss interaction score
B. subtilis 168 | 0.0664
S. aureus DSM 20231 | -0.0228
S. aureus Newman | 0.0708
S. pneumoniae D39V [2] | 0.09
